Assay results: PubChem BioAssay (NCI)
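Five compound concentrations were applied to cells in 96-well plates for 48 hours; endpoints were derived by simple linear interpolation of the resulting dose-response curve. GI50: concentration for 50% inhibition of growth. TGI: total growth inhibition.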

Assays:
Test in all cases: DTP human tumour cell line panel, 48 h
KM12 colon = system: KM12 colon
A498 renal = system: A498 renal
NCI/ADR-RES ovarian = system: NCI/ADR-RES ovarian
SR leukemia = system: SR leukemia
HT29 colon = system: HT29 colon
K-562 leukemia = system: K-562 leukemia
786-0 renal = system: 786-0 renal
SK-MEL-2 melanoma = system: SK-MEL-2 melanoma
HL-60(TB) leukemia = system: HL-60(TB) leukemia
NCI-H460 lung = system: NCI-H460 lung
PC-3 prostate = system: PC-3 prostate
SF-295 CNS = system: SF-295 CNS
NCI-H23 lung = system: NCI-H23 lung
SF-268 CNS = system: SF-268 CNS
SN12C renal = system: SN12C renal
MDA-MB-231 breast = system: MDA-MB-231 breast
HCT-116 colon = system: HCT-116 colon
RPMI-8226 leukemia = system: RPMI-8226 leukemia
UACC-257 melanoma = system: UACC-257 melanoma
TK-10 renal = system: TK-10 renal
COLO 205 colon = system: COLO 205 colon
OVCAR-5 ovarian = system: OVCAR-5 ovarian
EKVX NSCLC = system: EKVX NSCLC
SK-OV-3 ovarian = system: SK-OV-3 ovarian
HCC-2998 colon = system: HCC-2998 colon
MCF7 breast = system: MCF7 breast
OVCAR-3 ovarian = system: OVCAR-3 ovarian
DU-145 prostate = system: DU-145 prostate
CCRF-CEM leukemia = system: CCRF-CEM leukemia
A549 NSCLC = system: A549 NSCLC
SW-620 colon = system: SW-620 colon
BT-549 breast = system: BT-549 breast
U251 CNS = system: U251 CNS
NCI-H226 lung = system: NCI-H226 lung
LOX IMVI melanoma = system: LOX IMVI melanoma
SNB-75 CNS = system: SNB-75 CNS
SK-MEL-5 melanoma = system: SK-MEL-5 melanoma
CAKI-1 renal = system: CAKI-1 renal
SF-539 CNS = system: SF-539 CNS
MOLT-4 leukemia = system: MOLT-4 leukemia
NCI-H522 lung = system: NCI-H522 lung
HOP-92 NSCLC = system: HOP-92 NSCLC
M14 melanoma = system: M14 melanoma
SNB-19 CNS = system: SNB-19 CNS
HOP-62 NSCLC = system: HOP-62 NSCLC
UO-31 renal = system: UO-31 renal
ACHN renal = system: ACHN renal
MALME-3M melanoma = system: MALME-3M melanoma
OVCAR-8 ovarian = system: OVCAR-8 ovarian
HS 578T breast = system: HS 578T breast
RXF 393 renal = system: RXF 393 renal
IGROV1 ovarian = system: IGROV1 ovarian
UACC-62 melanoma = system: UACC-62 melanoma
OVCAR-4 ovarian = system: OVCAR-4 ovarian
MDA-MB-435 = system: MDA-MB-435
SK-MEL-28 melanoma = system: SK-MEL-28 melanoma
HCT-15 colon = system: HCT-15 colon

C[C@H](Nc1ccc2c(c1)OCCn1cc(N3C(=O)OC[C@H]3C(F)F)nc1-2)C(N)=O
GI50 (KM12 colon): 46.9 µM
TGI (KM12 colon): > 100 µM
GI50 (A498 renal): 2.09 µM
TGI (A498 renal): 10.2 µM
GI50 (NCI/ADR-RES ovarian): > 69.9 µM
TGI (NCI/ADR-RES ovarian): > 100 µM
GI50 (SR leukemia): 38.6 µM
TGI (SR leukemia): > 100 µM
GI50 (HT29 colon): 0.153 µM
TGI (HT29 colon): > 100 µM
GI50 (K-562 leukemia): > 100 µM
TGI (K-562 leukemia): > 100 µM
GI50 (786-0 renal): 9.95 µM
TGI (786-0 renal): > 100 µM
GI50 (SK-MEL-2 melanoma): > 100 µM
TGI (SK-MEL-2 melanoma): > 100 µM
GI50 (HL-60(TB) leukemia): 0.413 µM
TGI (HL-60(TB) leukemia): > 100 µM
GI50 (NCI-H460 lung): 1.08 µM
TGI (NCI-H460 lung): > 100 µM
GI50 (PC-3 prostate): 3.81 µM
TGI (PC-3 prostate): > 100 µM
GI50 (SF-295 CNS): 7.8 µM
TGI (SF-295 CNS): > 100 µM
GI50 (NCI-H23 lung): 38.5 µM
TGI (NCI-H23 lung): > 100 µM
GI50 (SF-268 CNS): 29 µM
TGI (SF-268 CNS): > 100 µM
GI50 (SN12C renal): 13 µM
TGI (SN12C renal): > 100 µM
GI50 (MDA-MB-231 breast): 16.4 µM
TGI (MDA-MB-231 breast): 65.3 µM
GI50 (HCT-116 colon): 17.1 µM
TGI (HCT-116 colon): > 100 µM
GI50 (RPMI-8226 leukemia): 31.3 µM
TGI (RPMI-8226 leukemia): > 100 µM
GI50 (UACC-257 melanoma): 11.5 µM
TGI (UACC-257 melanoma): > 100 µM
GI50 (TK-10 renal): 0.517 µM
TGI (TK-10 renal): > 91.2 µM
GI50 (COLO 205 colon): 2.3 µM
TGI (COLO 205 colon): > 100 µM
GI50 (OVCAR-5 ovarian): 0.421 µM
TGI (OVCAR-5 ovarian): > 82.6 µM
GI50 (EKVX NSCLC): 4.91 µM
TGI (EKVX NSCLC): > 100 µM
GI50 (SK-OV-3 ovarian): 0.0307 µM
TGI (SK-OV-3 ovarian): 0.809 µM
GI50 (HCC-2998 colon): 1.92 µM
TGI (HCC-2998 colon): > 100 µM
GI50 (MCF7 breast): 0.0354 µM
TGI (MCF7 breast): > 100 µM
GI50 (OVCAR-3 ovarian): 6.26 µM
TGI (OVCAR-3 ovarian): > 100 µM
GI50 (DU-145 prostate): 20.3 µM
TGI (DU-145 prostate): > 100 µM
GI50 (CCRF-CEM leukemia): 7.93 µM
TGI (CCRF-CEM leukemia): > 100 µM
GI50 (A549 NSCLC): 4.82 µM
TGI (A549 NSCLC): > 100 µM
GI50 (SW-620 colon): 20.5 µM
TGI (SW-620 colon): > 100 µM
GI50 (BT-549 breast): 5.4 µM
TGI (BT-549 breast): > 100 µM
GI50 (U251 CNS): > 77.6 µM
TGI (U251 CNS): > 100 µM
GI50 (NCI-H226 lung): > 62 µM
TGI (NCI-H226 lung): > 100 µM
GI50 (LOX IMVI melanoma): 4.8 µM
TGI (LOX IMVI melanoma): 40.4 µM
GI50 (SNB-75 CNS): 0.0619 µM
TGI (SNB-75 CNS): 5.12 µM
GI50 (SK-MEL-5 melanoma): 20.8 µM
TGI (SK-MEL-5 melanoma): > 100 µM
GI50 (CAKI-1 renal): 4.88 µM
TGI (CAKI-1 renal): > 100 µM
GI50 (SF-539 CNS): 3.12 µM
TGI (SF-539 CNS): 43.8 µM
GI50 (MOLT-4 leukemia): 2.89 µM
TGI (MOLT-4 leukemia): > 100 µM
GI50 (NCI-H522 lung): > 100 µM
TGI (NCI-H522 lung): > 100 µM
GI50 (HOP-92 NSCLC): 0.183 µM
TGI (HOP-92 NSCLC): 16.4 µM
GI50 (M14 melanoma): 68.5 µM
TGI (M14 melanoma): > 100 µM
GI50 (SNB-19 CNS): 25.3 µM
TGI (SNB-19 CNS): > 100 µM
GI50 (HOP-62 NSCLC): 17.5 µM
TGI (HOP-62 NSCLC): > 100 µM
GI50 (UO-31 renal): 1.57 µM
TGI (UO-31 renal): > 100 µM
GI50 (ACHN renal): 5 µM
TGI (ACHN renal): > 100 µM
GI50 (MALME-3M melanoma): > 20.7 µM
TGI (MALME-3M melanoma): > 100 µM
GI50 (OVCAR-8 ovarian): > 68.3 µM
TGI (OVCAR-8 ovarian): > 100 µM
GI50 (HS 578T breast): 1.77 µM
TGI (HS 578T breast): 68.1 µM
GI50 (RXF 393 renal): 5.56 µM
TGI (RXF 393 renal): 45.8 µM
GI50 (IGROV1 ovarian): 0.0199 µM
TGI (IGROV1 ovarian): 0.215 µM
GI50 (UACC-62 melanoma): 3.05 µM
TGI (UACC-62 melanoma): > 100 µM
GI50 (OVCAR-4 ovarian): 79.4 µM
TGI (OVCAR-4 ovarian): > 100 µM
GI50 (MDA-MB-435): 25.6 µM
TGI (MDA-MB-435): > 100 µM
GI50 (SK-MEL-28 melanoma): 7.3 µM
TGI (SK-MEL-28 melanoma): > 100 µM
GI50 (HCT-15 colon): 0.52 µM
TGI (HCT-15 colon): > 100 µM
